From US9695155B2, “Herbicidal substituted pyrimidinyloxy benzene compounds” (E. I. DU PONT DE NEMOURS AND COMPANY, priority 2013, dated 2017)

Legend:
barnyardgrass = assay: Test E preemergence; assay type: in vivo, Echinochloa crus-galli; conditions: for Barnyardgrass plant response rating: scale 0 to 100 (0 no effect, 100 complete control)
Summary of the method: (§1)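 Test chemicals formulated in a non-phytotoxic solvent mixture containing a surfactant were applied preemergence to seeds in silt loam soil or postemergence to plants at the 1- to 4-leaf stage in potting mix. After 14 to 21 days in a greenhouse, injury was visually rated against controls on a 0-100 scale (0 = no effect, 100 = complete control).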

ragweed [1] = assay: Test E preemergence; assay type: in vivo, Ambrosia elatior; conditions: for Ragweed plant response rating: scale 0 to 100 (0 no effect, 100 complete control)
Summary of the method: as §1

yellow nutsedge = assay: Test E preemergence; assay type: in vivo, Cyperus esculentus; conditions: for Nutsedge, Yellow plant response rating: scale 0 to 100 (0 no effect, 100 complete control)
Source text: (§2) Seeds of plant species selected from corn (Zea mays), soybean (Glycine max), velvetleaf (Abutilon theophrasti), lambsquarters (Chenopodium album), wild poinsettia (Euphorbia heterophylla), palmer pigweed (Amaranthus palmeri), waterhemp (common waterhemp, Amaranthus rudis), surinam grass (Brachiaria decumbens), large (Lg) crabgrass (Digitaria sanguinalis), Brazilian crabgrass (Digitaria horizontalis), fall panicum (Panicum dichotomiflorum), giant foxtail (Setaria faberii), green foxtail (Setaria viridis), goosegrass (Eleusine indica), johnsongrass (Sorghum halepense), ragweed (common ragweed, Ambrosia elatior), barnyardgrass (Echinochloa crus-galli), sandbur (southern sandbur, Cenchrus echinatus), arrowleaf sida (Sida rhombifolia), Italian ryegrass (Lolium multiflorum), dayflower (Virginia (VA) dayflower, Commelina virginica), field bindweed (Convolvulus arvensis), morningglory (Ipomoea coccinea), nightshade (eastern black nightshade, Solanum ptycanthum), kochia (Kochia scoparia), yellow nutsedge (Cyperus esculentus), cocklebur (common cocklebur, Xanthium strumarium), smartweed (ladysthumb smartweed, and hairy beggarticks (Bidens pilosa), were planted into a silt loam soil and treated preemergence with test chemicals formulated in a non-phytotoxic solvent mixture which included a surfactant.
(§3) At the same time, plants from these crop and weed species and also horseweed (Canada horseweed, Conyza canadensis), waterhemp_RES1, (ALS & Triazine resistant common waterhemp, Amaranthus rudis), and waterhemp_RES2, (ALS & HPPD resistant common waterhemp, Amaranthus rudis) were planted in pots containing Redi-Earth® planting medium (Scotts Company, 14111 Scottslawn Road, Marysville, Ohio 43041) comprising spaghnum peat moss, vermiculite, wetting agent and starter nutrients were treated with postemergence applications of test chemicals formulated in the same manner. Plants ranged in height from 2 to 18 cm for postemergence treatments (1- to 4-leaf stage). Treated plants and controls were maintained in a greenhouse for 14 to 21 days, after which time all species were compared to controls and visually evaluated. Plant response ratings, summarized in Table E, are based on a scale of 0 to 100 where 0 is no effect and 100 is complete control. A dash (-) response means no test result.

green foxtail = assay: Test E preemergence; assay type: in vivo, Setaria viridis; conditions: for Foxtail, Green plant response rating: scale 0 to 100 (0 no effect, 100 complete control)
Summary of the method: as §1

large (Lg) crabgrass = assay: Test E preemergence; assay type: in vivo, Digitaria sanguinalis; conditions: for Crabgrass, Large plant response rating: scale 0 to 100 (0 no effect, 100 complete control)
Source text: as §2, §3

Italian ryegrass = assay: Test A preemergence; assay type: in vivo, Lolium multiflorum; conditions: for Plant response rating, Ryegrass, Italian: 0 to 100 scale where 0 is no effect and 100 is complete control
Summary of the method: (§4)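 Visual injury scored 0–100 (100 = complete control) against untreated controls about 10 days after treatment in a greenhouse. Test chemicals, formulated with surfactant in non-phytotoxic solvent, were sprayed on soil preemergence or on 2-10 cm, one- to two-leaf plants postemergence.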

ragweed [2] = assay: Test A preemergence; assay type: in vivo, Ambrosia elatior
Summary of the method: as §4

kochia = assay: Test A preemergence; assay type: in vivo, Kochia scoparia; conditions: for Plant response rating, Kochia: 0 to 100 scale where 0 is no effect and 100 is complete control
Summary of the method: as §4

blackgrass = assay: Test A postemergence; assay type: in vivo, Alopecurus myosuroides
Summary of the method: as §4

[3] = Preemergence, 62 g ai/ha, scale 0 to 100, 0 no effect, 100 complete control
[4] = preemergence, 125 g ai/ha, scale 0 to 100, 0 no effect, 100 complete control
[5] = 125 g ai/ha, scale 0 to 100, 0 no effect, 100 complete control
[6] = 250 g ai/ha, scale 0 to 100, 0 no effect, 100 complete control
[7] = 500 g ai/ha, 0 to 100 scale, 0 no effect, 100 complete control, approx. 10 days
[8] = 125 g ai/ha, 0 to 100 scale where 0 is no effect and 100 is complete control
[9] = 8 g ai/ha, scale 0 to 100, 0 is no effect, 100 is complete control
[10] = 31 g ai/ha, visual, approximately 10 days

Structure (SMILES)	Barnyardgrass plant response rating (barnyardgrass; 16 g ai/ha, preemergence)	Barnyardgrass plant response rating (barnyardgrass; 31 g ai/ha, preemergence)	Plant response rating, Barnyardgrass (barnyardgrass; [3])	Plant response rating, Barnyardgrass (barnyardgrass; [4])	Ragweed plant response rating (ragweed [1]; 16 g ai/ha)	Ragweed plant response rating (ragweed [1]; 31 g ai/ha)	Ragweed plant response rating (ragweed [1]; 62 g ai/ha)	Plant response rating, Ragweed (ragweed [1]; [5])	Nutsedge, Yellow plant response rating (yellow nutsedge; 31 g ai/ha)	Nutsedge, Yellow plant response rating (yellow nutsedge; 62 g ai/ha)	Plant response rating, Nutsedge, Yellow (yellow nutsedge; [5])	Foxtail, Green plant response rating (green foxtail; 16 g ai/ha)	Foxtail, Green plant response rating (green foxtail; 31 g ai/ha)	Foxtail, Green plant response rating (green foxtail; 62 g ai/ha)	Plant response rating, Foxtail, Green (green foxtail; [5])	Crabgrass, Large plant response rating (large (Lg) crabgrass; 16 g ai/ha)	Crabgrass, Large plant response rating (large (Lg) crabgrass; 31 g ai/ha)	Crabgrass, Large plant response rating (large (Lg) crabgrass; 62 g ai/ha)	Plant response rating, Crabgrass, Large (large (Lg) crabgrass; [5])	Barnyardgrass plant response rating (barnyardgrass; 62 g ai/ha, preemergence)	also measured
N#Cc1cccc(Oc2ncc(F)cn2)c1-n1cc(Cl)cn1 [Compound 73]	0	0	0	20	0	5	30	60	0	50	40	0	20	70	80	0	30	100	100		Plant response rating, Barnyardgrass (barnyardgrass; preemergence, 250 g ai/ha, scale 0 to 100, 0 no effect, 100 complete control): 75; Plant response rating, Ragweed (ragweed [1]; [6]): 80; Nutsedge, Yellow plant response rating (yellow nutsedge; 16 g ai/ha): 0; Plant response rating, Nutsedge, Yellow (yellow nutsedge; [6]): 30; Plant response rating, Foxtail, Green (green foxtail; [6]): 95; Plant response rating, Crabgrass, Large (large (Lg) crabgrass; [6]): 100
N#Cc1cccc(Oc2ncc(F)cn2)c1-n1cc(I)cn1 [Compound 86]	0	0	0	30	0	0	5	20	0	0	20	0	0	15	75	0	0	95	98		Plant response rating, Ryegrass, Italian (Italian ryegrass; 125 g ai/ha): 10; Ryegrass, Italian plant response rating (Italian ryegrass; [7]): 60; Plant response rating, Ragweed (ragweed [2]; [8]): 90; Ragweed plant response rating (ragweed [2]; [7]): 100; Plant response rating, Kochia (kochia; 125 g ai/ha): 100; Kochia plant response rating (kochia; [7]): 100; Nutsedge, Yellow plant response rating (yellow nutsedge; 16 g ai/ha): 0; Plant response rating, Blackgrass (blackgrass; [8]): 90; Plant response rating, Blackgrass (blackgrass; 500 g ai/ha, 0 to 100 scale where 0 is no effect and 100 is complete control): 100
N#Cc1cnn(-c2c(C#N)cccc2Oc2ncc(F)cn2)c1 [Compound 111]	0	0	0	35	25	50	70	90	0	0	15	0	10	70	90	15	35	90	100		Nutsedge, Yellow plant response rating (yellow nutsedge; 16 g ai/ha): 0
FC(F)(F)c1cnn(-c2c(Cl)cccc2Oc2ncc(Cl)cn2)c1 [Compound 167]	20	20		75		15	35	35	0	0	0	10	35	70	90	0	65	100	100	25	
Fc1cccc(Oc2ncc(Cl)cn2)c1-n1cc(I)cn1 [Compound 179]	0			20			0	0		30	30	0		25	100	0		75	98	10	Plant response rating, Barnyardgrass (barnyardgrass; 8 g ai/ha, preemergence, scale 0 to 100, 0 is no effect, 100 is complete control): 0; Plant response rating, Ragweed (ragweed [1]; [9]): 0; Plant response rating, Nutsedge, Yellow (yellow nutsedge; [9]): 0; Plant response rating, Foxtail, Green (green foxtail; [9]): 0; Plant response rating, Crabgrass, Large (large (Lg) crabgrass; [9]): 0
FC(F)c1cccc(Oc2ncc(Cl)cn2)c1-n1cc(Br)cn1 [Compound 194, 2-[2-(4-bromo-1H-pyrazol-1-yl)-3-(difluoromethyl)phenoxy]-5-chloropyrimidine]		0				0	20		0	20			35	80			85	95		0	
FCc1cccc(Oc2ncc(Cl)cn2)c1-n1cc(Cl)cn1 [Compound 250]	0	0		25		0	0	0	0	0	40	0	0	0	90	0	0	0	100	0	Plant response rating, Ryegrass, Italian (Italian ryegrass; [10]): 0; Ryegrass, Italian plant response rating (0 to 100 scale) (Italian ryegrass; 125 g ai/ha): 0; Plant response rating, Kochia (kochia; [10]): 90; Kochia plant response rating (0 to 100 scale) (kochia; 125 g ai/ha): 0; Plant response rating, Blackgrass (blackgrass; 31 g ai/ha, 0 to 100 scale, 0 no effect, 100 complete control): 70; Plant response rating, Blackgrass (blackgrass; 125 g ai/ha, 0 to 100 scale, 0 no effect, 100 complete control): 100
